Test results: patent US20160151337A1, “ANNELATED PYRROLES AND THEIR USE AS CRAC INHIBITORS” (Grünenthal GmbH, priority 2013, published 2016)

What was measured:
CRAC channel = biological target: T1, CRAC channel (Homo sapiens, UniProt Q96D31); assay: HEK Calcium Influx Assay (FLIPR), inhibition of store-operated Ca2+ entry after thapsigargin store depletion; format: cell-based; conditions: 10 μM compound, HEK293 cells, read-out: % inhib. [@ 10 μM] FLIPR
T1 construct: endogenous in cells; host or cells: HEK293 (ECACC), untransfected
T1 sequence (Q96D31 whole entry): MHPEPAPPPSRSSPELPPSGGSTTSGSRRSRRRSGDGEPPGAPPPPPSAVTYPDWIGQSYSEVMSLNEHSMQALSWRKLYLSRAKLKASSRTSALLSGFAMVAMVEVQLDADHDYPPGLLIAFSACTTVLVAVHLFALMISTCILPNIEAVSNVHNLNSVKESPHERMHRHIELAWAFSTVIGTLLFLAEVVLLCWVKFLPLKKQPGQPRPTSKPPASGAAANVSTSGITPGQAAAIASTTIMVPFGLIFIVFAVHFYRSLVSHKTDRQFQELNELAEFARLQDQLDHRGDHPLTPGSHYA
Method in brief: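 HEK293 cells loaded with Calcium-4 dye in Ca2+-free HBS (pH 7.4), stores depleted with 2 μM thapsigargin for 10 min (100 μM EGTA); after 3 mM CaCl2 re-addition and 15 min steady-state, compounds added and FLIPR signal averaged 9.5–10 min post-dose. IC50 from 8-point 1:3.16 dilutions from 10 μM, normalised to DMSO and non-depleted wells.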

[1] = tested on: Interleukin-2 (IL-2) production/release in Jurkat T cells; assay: Jurkat IL-2 Production Assay (PHA-stimulated, IL-2 AlphaLisa); format: cell-based; conditions: Homo sapiens, PHA 15 μg/ml, 22 h, inhibition of IL-2 production
Method in brief: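 Jurkat E6-1 cells (5*10^5/well, DMEM/F12 with 10% FCS) pretreated 30 min with compound, then stimulated 22 h with 15 μg/ml PHA at 37 °C. IC50 from 8-point 1:3.16 dilution starting at 10 μM.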

SMILES	inhibition at 10 µM (CRAC channel)	IC50 [1]
Cc1cc(S(=O)(=O)N2CCC2)ccc1N1CCc2[nH]c(-c3c(F)cccc3F)cc2C1 [Example 109, 5-[4-(Azetidin-1-ylsulfonyl)-2-methyl-phenyl]-2-(2,6-difluoro-phenyl)-4,5,6,7-tetrahydro-1H-pyrrolo[3,2-c]pyridine]	< 50%	< 0.5 µM
Cc1cc(S(C)(=O)=O)ncc1N1CCc2[nH]c(-c3ccc(F)cc3F)cc2C1 [Example 78, 2-(2,4-Difluoro-phenyl)-5-(4-methyl-6-methylsulfonyl-pyridin-3-yl)-4,5,6,7-tetrahydro-1H-pyrrolo[3,2-c]pyridine]	> 70%	0.5 to 1 µM
Cc1cc2c(cc1N1CCc3[nH]c(-c4c(F)cccc4F)cc3C1)OC(F)(F)O2 [Example 20, 5-(2,2-Difluoro-6-methyl-1,3-benzodioxol-5-yl)-2-(2,6-difluoro-phenyl)-4,5,6,7-tetrahydro-1H-pyrrolo[3,2-c]pyridine]	< 50%	1 to 5 µM
Cc1cc(S(=O)(=O)NCC(F)(F)F)ccc1N1CCc2[nH]c(-c3c(F)cccc3F)cc2C1 [Example 136, 4-[2-(2,6-Difluoro-phenyl)-4,5,6,7-tetrahydro-1H-pyrrolo[3,2-c]pyridin-5-yl]-3-methyl-N-(2,2,2-trifluoro-ethyl)-benzenesulfonic acid amide]	< 50%	1 to 5 µM
Cc1ccc(-c2nccs2)cc1N1CCc2[nH]c(-c3c(F)cccc3F)cc2C1 [Example 8, 2-[3-[2-(2,6-Difluoro-phenyl)-4,5,6,7-tetrahydro-1H-pyrrolo[3,2-c]pyridin-5-yl]-4-methyl-phenyl]-thiazole]	> 70%	< 0.5 µM
COc1ccc(OC)c(N2CCc3[nH]c(-c4c(F)cccc4F)cc3C2)c1 [Example 21, 2-(2,6-Difluoro-phenyl)-5-(2,5-dimethoxyphenyl)-4,5,6,7-tetrahydro-1H-pyrrolo[3,2-c]pyridine]	> 70%	1 to 5 µM
Cc1cc(C)c(-c2cc3c([nH]2)CCN(c2cnc(C(F)(F)F)cc2C)C3)cn1 [Example 135, 2-(4,6-Dimethyl-pyridin-3-yl)-5-[4-methyl-6-(trifluoromethyl)-pyridin-3-yl]-4,5,6,7-tetrahydro-1H-pyrrolo[3,2-c]pyridine]	< 50%	0.5 to 1 µM
Cc1ccc(Cl)cc1N1CCc2[nH]c(-c3c(F)cccc3Cl)cc2C1 [Example 64, 2-(2-Chloro-6-fluoro-phenyl)-5-(5-chloro-2-methyl-phenyl)-4,5,6,7-tetrahydro-1H-pyrrolo[3,2-c]pyridine]	< 50%	1 to 5 µM
Cc1sc(-c2ccncc2)nc1N1CCc2[nH]c(-c3c(F)cccc3F)cc2C1 [Example 24, 4-[2-(2,6-Difluoro-phenyl)-4,5,6,7-tetrahydro-1H-pyrrolo[3,2-c]pyridin-5-yl]-5-methyl-2-pyridin-4-yl-thiazole]	> 70%	< 0.5 µM
CCCCc1cc2c([nH]1)CCN(c1cnc(S(C)(=O)=O)cc1C)C2 [Example 74, 2-Butyl-5-(4-methyl-6-methylsulfonyl-pyridin-3-yl)-4,5,6,7-tetrahydro-1H-pyrrolo[3,2-c]pyridine]	> 70%	1 to 5 µM
Fc1cccc(F)c1-c1cc2c([nH]1)CCN(c1cccc(C(F)(F)F)c1)C2 [Example 7, 2-(2,6-Difluoro-phenyl)-5-[3-(trifluoromethyl)phenyl]-4,5,6,7-tetrahydro-1H-pyrrolo[3,2-c]pyridine]	< 50%	1 to 5 µM
CNS(=O)(=O)c1ccc(N2CCc3[nH]c(-c4c(F)cccc4F)cc3C2)c(C)c1 [Example 114, 4-[2-(2,6-Difluoro-phenyl)-4,5,6,7-tetrahydro-1H-pyrrolo[3,2-c]pyridin-5-yl]-N,3-dimethyl-benzenesulfonic acid amide]	< 50%	< 0.5 µM
CCOc1cc(OC)c(N2CCc3[nH]c(-c4c(F)cccc4F)cc3C2)cn1 [Example 143, 2-(2,6-Difluoro-phenyl)-5-(6-ethoxy-4-methoxy-pyridin-3-yl)-4,5,6,7-tetrahydro-1H-pyrrolo[3,2-c]pyridine]	< 50%	1 to 5 µM
Cc1cc(C(F)(F)F)ncc1N1CCc2[nH]c(-c3c(F)cccc3F)cc2C1 [Example 73, 2-(2,6-Difluoro-phenyl)-5-[4-methyl-6-(trifluoromethyl)-pyridin-3-yl]-4,5,6,7-tetrahydro-1H-pyrrolo[3,2-c]pyridine]	> 70%	< 0.5 µM
Cc1cc(S(=O)(=O)N2CCCCC2)ccc1N1CCc2[nH]c(-c3c(F)cccc3F)cc2C1 [Example 119, 2-(2,6-Difluoro-phenyl)-5-[2-methyl-4-(piperidin-1-ylsulfonyl)-phenyl]-4,5,6,7-tetrahydro-1H-pyrrolo[3,2-c]pyridine]	< 50%	1 to 5 µM
Cc1nc(C#N)ccc1N1CCc2[nH]c(-c3c(F)cccc3F)cc2C1 [Example 77, 5-[2-(2,6-Difluoro-phenyl)-4,5,6,7-tetrahydro-1H-pyrrolo[3,2-c]pyridin-5-yl]-6-methyl-pyridine-2-carbonitrile]	> 70%	1 to 5 µM
COc1cc(OC(F)F)ncc1N1CCc2[nH]c(-c3c(F)cccc3F)cc2C1 [Example 140, 5-[6-(Difluoro-methoxy)-4-methoxy-pyridin-3-yl]-2-(2,6-difluoro-phenyl)-4,5,6,7-tetrahydro-1H-pyrrolo[3,2-c]pyridine]	> 70%	< 0.5 µM
CNS(=O)(=O)c1ccc(N2CCc3[nH]c(C4CCC(F)(F)CC4)cc3C2)c(C)c1 [Example 128, 4-[2-(4,4-Difluoro-cyclohexyl)-4,5,6,7-tetrahydro-1H-pyrrolo[3,2-c]pyridin-5-yl]-N,3-dimethyl-benzenesulfonic acid amide]	< 50%	1 to 5 µM
Cn1nc(C2(C(F)(F)F)CC2)cc1N1CCc2[nH]c(-c3c(F)cccc3F)cc2C1 [Example 123, 2-(2,6-Difluoro-phenyl)-5-[2-methyl-5-[1-(trifluoromethyl)-cyclopropyl]-2H-pyrazol-3-yl]-4,5,6,7-tetrahydro-1H-pyrrolo[3,2-c]pyridine]	> 70%	0.5 to 1 µM
